Reference: patent US10137162B1, “Gastroprotective extracts of Sonchus oleraceus L” (KING SAUD UNIVERSITY, priority 2018, dated 2018)

Columns and labels:
[1] = tested on: ulcerative colitis induced by acetic acid; assay: acetic acid-induced ulcerative colitis; assay type: in vivo, Male Wistar rats; details: 0.1 mg/kg oral once daily, 5 days
Protocol: All medications were administered orally, once daily for 5 consecutive days and the first dose was administered about 2 h after ulcerative colitis induction by about 2 mL (4%, v/v) acetic acid in saline. Ulcer indices (mm) were calculated as the sum of the total length of long ulcers and petechial lesions in each group of rats divided by its number. All values were expressed as mean+S.D. Comparisons between means were carried out using a one-way ANOVA test followed by the Tukey HSD test using SPSS, version 14 (SPSS, Chicago, Ill.). Differences at p<0.05 were considered statistically significant.

[2] = tested on: absolute ethanol-induced ulcer; assay: absolute ethanol-induced ulcer model (gastroprotective activity); assay type: in vivo, Male Wistar rats; details: 20 mg/kg oral
Protocol: The absolute ethanol-induced ulcer model was used for evaluation of gastroprotective activity. Groups of 6 Male Wistar rats were used. Treated groups received either total alcohol extracts (SA or SR) at doses of about 250 mg/kg or about 500 mg/kg. […] A treatment group received Omeprazole (about 20 mg/kg) and a control group received water (about 5 mL/kg). All treatments were administered orally to all groups. […] After one hour all rats were sacrificed, the stomachs were rapidly removed, opened along their greater curvature, and gently rinsed under running tap water. The number and severity of ulcers were visually counted and the ulcer index was calculated. Ulcer indices (mm) were calculated as the sum of the total length of long ulcers and petechial lesions in each group of rats divided by its number. Percent protection was determined according to the following formula: [formula] All values were expressed as mean+S.D. Comparisons between means were carried out using a one-way ANOVA test followed by the Tukey HSD test using SPSS, version 14 (SPSS, Chicago, Ill.). Differences at p<0.05 were considered statistically significant.

Structure (SMILES)	% protection [1]	Score ([2]; 30 min before ethanol)	% protection ([2]; ethanol-induced ulcer)
C[C@@H]1C[C@H]2[C@@H]3CCC4=CC(=O)C=C[C@]4(C)[C@@]3(F)[C@@H](O)C[C@]2(C)[C@@]1(O)C(=O)CO [Dexamethasone, dexamethasone]	66.36%		
COc1ccc2[nH]c([S+]([O-])Cc3ncc(C)c(OC)c3C)nc2c1 (stereo not drawn) [Omeprazole]		2.50	45.83%
